Data published in ChEMBL document CHEMBL1201862, “PubChem BioAssay data set” (2004).
Active and inactive are the calls of the source.

Experiments:
[1] = target: T1, Sentrin-specific protease 8 (Homo sapiens, UniProt Q96LD8); format: functional
T1 sequence (Q96LD8 whole entry): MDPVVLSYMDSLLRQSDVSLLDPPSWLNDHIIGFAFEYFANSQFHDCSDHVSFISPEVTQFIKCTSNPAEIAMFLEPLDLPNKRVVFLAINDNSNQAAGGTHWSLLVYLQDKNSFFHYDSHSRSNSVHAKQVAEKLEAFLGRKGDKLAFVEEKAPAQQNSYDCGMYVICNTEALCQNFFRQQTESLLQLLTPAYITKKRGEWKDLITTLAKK

Caspase-3 = target: T2, Caspase-3 (Homo sapiens, UniProt P42574); assay: Dose-response confirmation of uHTS inhibitor hits of Sentrin-Specific Protease 8 in a Caspase-3 Fluorescence assay.; format: functional
T2 sequence (P42574 whole entry): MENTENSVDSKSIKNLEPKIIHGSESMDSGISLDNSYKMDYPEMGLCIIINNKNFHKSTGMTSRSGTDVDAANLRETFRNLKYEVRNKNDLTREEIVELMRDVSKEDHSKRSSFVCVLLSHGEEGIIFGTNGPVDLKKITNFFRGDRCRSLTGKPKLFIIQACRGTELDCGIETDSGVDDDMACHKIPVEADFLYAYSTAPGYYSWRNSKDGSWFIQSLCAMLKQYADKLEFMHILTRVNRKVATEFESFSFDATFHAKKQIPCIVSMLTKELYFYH

[2] = target: T1, Sentrin-specific protease 8; format: functional; remark: listed apart in the source
[3] = target: T3, Botulinum neurotoxin type A (Clostridium botulinum (strain Hall / ATCC 3502 / NCTC 13319 / Type A), UniProt P0DPI1); assay: Confirmatory FRET assay using full length substrates for Botulinum neurotoxin light chain A protease, with Powder Set01.; format: functional
T3 sequence (P0DPI1 2-448 limits assumed): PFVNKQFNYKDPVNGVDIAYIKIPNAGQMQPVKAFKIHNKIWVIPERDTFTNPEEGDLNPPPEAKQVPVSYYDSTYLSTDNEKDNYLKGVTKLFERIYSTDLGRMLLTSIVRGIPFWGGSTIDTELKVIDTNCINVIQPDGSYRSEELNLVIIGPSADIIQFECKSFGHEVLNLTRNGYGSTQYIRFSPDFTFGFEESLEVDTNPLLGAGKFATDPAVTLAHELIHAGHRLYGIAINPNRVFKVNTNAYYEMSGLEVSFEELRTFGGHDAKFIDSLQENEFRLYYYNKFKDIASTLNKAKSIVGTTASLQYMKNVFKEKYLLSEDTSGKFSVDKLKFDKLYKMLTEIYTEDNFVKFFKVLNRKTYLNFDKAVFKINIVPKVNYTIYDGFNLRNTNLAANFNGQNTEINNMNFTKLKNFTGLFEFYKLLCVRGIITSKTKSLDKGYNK

[4] = target: T3, Botulinum neurotoxin type A; assay: High-throughput multiplex microsphere dose response for inhibitors of toxin protease, specifically Botulinum neurotoxin light chain A protease, compounds from Powder Set 01.; format: functional, Clostridium botulinum A str. ATCC 3502; details: read-out: EC50_MICROM
Lethal factor = Lethal factor (Bacillus anthracis, UniProt P15917); assay: High-throughput multiplex microsphere dose response for inhibitors of toxin protease, specifically Lethal Factor protease, compounds from Powder Set 01.; format: functional, Bacillus anthracis str. A2012; details: read-out: EC50_MICROM
Chain of Lethal factor (P15917 whole entry): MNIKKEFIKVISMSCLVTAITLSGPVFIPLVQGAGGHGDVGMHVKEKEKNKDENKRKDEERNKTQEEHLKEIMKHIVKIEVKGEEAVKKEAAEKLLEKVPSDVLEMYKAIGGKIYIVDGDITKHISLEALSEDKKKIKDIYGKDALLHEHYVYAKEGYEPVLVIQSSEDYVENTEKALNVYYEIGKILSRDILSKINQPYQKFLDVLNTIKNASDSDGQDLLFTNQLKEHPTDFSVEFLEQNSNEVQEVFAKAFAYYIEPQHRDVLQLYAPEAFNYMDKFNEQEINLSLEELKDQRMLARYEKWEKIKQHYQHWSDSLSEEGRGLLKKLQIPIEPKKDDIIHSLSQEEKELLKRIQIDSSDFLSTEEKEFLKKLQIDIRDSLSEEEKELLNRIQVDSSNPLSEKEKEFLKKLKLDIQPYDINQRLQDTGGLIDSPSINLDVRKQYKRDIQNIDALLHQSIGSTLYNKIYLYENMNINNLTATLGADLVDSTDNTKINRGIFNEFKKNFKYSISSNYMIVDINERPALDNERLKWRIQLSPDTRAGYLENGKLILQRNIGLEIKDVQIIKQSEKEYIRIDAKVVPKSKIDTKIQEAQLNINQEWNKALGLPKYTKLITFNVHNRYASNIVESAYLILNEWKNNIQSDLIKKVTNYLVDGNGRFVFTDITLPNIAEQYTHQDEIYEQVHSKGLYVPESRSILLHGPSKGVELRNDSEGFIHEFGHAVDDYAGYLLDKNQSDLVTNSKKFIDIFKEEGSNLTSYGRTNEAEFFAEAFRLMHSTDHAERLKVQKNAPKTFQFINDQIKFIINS

[5] = target: Botulinum neurotoxin type F (Clostridium botulinum, UniProt P30996); assay: High-throughput multiplex microsphere dose response for inhibitors of toxin protease, specifically Botulinum neurotoxin light chain F protease, compounds from Powder Set 01.; format: functional, Clostridium botulinum Bf; details: read-out: EC50_MICROM
Chain of Botulinum neurotoxin type F (P30996 1-436 limits assumed): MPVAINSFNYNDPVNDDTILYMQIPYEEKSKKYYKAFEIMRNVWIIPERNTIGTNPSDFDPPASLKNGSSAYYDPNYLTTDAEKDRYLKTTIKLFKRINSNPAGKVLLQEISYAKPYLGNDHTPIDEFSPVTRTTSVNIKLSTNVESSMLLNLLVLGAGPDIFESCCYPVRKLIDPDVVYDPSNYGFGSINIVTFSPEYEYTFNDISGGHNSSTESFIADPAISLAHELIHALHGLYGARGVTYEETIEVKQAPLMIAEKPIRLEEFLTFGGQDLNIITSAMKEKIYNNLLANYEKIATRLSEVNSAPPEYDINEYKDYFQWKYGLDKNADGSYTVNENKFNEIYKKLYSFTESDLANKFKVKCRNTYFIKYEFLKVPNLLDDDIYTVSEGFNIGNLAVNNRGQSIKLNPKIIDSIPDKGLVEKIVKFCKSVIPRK

[6] = loss of viability in HepG2 cells – cell-based, CellTiter-Glo, cherry-picked, cytotoxicity control for Shn3 inhibitor project, dose response (AID 624134); format: functional
BJ [7] = assay: BJ-TERT-LT-ST fibroblast viability loss – cell-based, RAS-independent, luminescence, dose response (AID 1935); format: functional; details: Homo sapiens;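 further: BJ fibroblasts immortalized with TERT plus LT and ST oncogenes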
BJ [8] = assay: BJ-TERT fibroblast viability loss – cell-based, RAS-independent, luminescence, dose response (AID 1933); format: functional; details: Homo sapiens
[9] = target: T4, Rac GTPase-activating protein 1 (Homo sapiens, UniProt Q9H0H5); assay: blockers of MgcRacGAP-driven Rac1 GTP hydrolysis – biochemical, ADP Hunter fluorescence, primary and confirmatory, confirmation (AID 624330); format: functional
T4 sequence (Q9H0H5 whole entry): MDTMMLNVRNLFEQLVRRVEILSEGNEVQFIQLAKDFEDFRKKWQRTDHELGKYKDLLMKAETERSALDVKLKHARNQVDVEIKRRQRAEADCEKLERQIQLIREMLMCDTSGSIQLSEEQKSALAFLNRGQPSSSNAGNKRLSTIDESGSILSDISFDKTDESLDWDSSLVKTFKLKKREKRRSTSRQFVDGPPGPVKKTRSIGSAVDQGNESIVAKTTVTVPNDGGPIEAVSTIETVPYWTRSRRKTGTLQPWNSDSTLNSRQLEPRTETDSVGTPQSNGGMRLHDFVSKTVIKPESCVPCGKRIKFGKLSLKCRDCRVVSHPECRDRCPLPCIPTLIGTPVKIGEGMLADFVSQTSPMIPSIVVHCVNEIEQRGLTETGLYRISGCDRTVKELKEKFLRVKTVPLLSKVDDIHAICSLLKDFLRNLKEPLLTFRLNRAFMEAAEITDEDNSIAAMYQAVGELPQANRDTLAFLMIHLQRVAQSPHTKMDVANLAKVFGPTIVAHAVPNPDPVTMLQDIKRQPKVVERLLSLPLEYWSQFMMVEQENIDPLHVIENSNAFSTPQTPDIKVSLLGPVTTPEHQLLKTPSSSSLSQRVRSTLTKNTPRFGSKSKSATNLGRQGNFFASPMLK

BJ [10] = assay: growth inhibition of engineered Ras-driven BJ cells – cell-based, alamar blue fluorescence, cherrypicked samples, dose response (AID 2631); format: functional; details: Homo sapiens;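 further: confirmatory dose-response assay in RAS-dependent BJ fibroblasts engineered with TERT, LT and ST, with cytotoxicity read by fluorescence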
[11] = reduction of Shn3 3'UTR-driven luciferase in osteoblasts – cell-based, Clone20 osteoblasts, firefly luciferase, cherry-picked, dose response (AID 624132); format: functional;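 further: firefly luciferase luminescence from reporter carrying the Shn3 3'UTR in osteoblasts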
[12] = non-specific 3'UTR reporter inhibition in Clone20-Shn3RL – cell-based, Renilla luciferase, cherry-picked, counter-screen for Shn3 inhibitor project, dose response (AID 624133); format: functional
[13] = viability loss in HEK293T cells – cell-based, cherry-picks, cytotoxicity control for HIV Vif inhibitor project, dose response (AID 652208); format: functional
[14] = DRD fibroblast viability loss – cell-based, non-viral oncogenic, luminescence, dose response (AID 1934); format: functional; details: Homo sapiens
[15] = target: T5, DNA repair protein RAD52 homolog (Homo sapiens, UniProt P43351); format: functional, biochemical
T5 sequence (P43351 whole entry): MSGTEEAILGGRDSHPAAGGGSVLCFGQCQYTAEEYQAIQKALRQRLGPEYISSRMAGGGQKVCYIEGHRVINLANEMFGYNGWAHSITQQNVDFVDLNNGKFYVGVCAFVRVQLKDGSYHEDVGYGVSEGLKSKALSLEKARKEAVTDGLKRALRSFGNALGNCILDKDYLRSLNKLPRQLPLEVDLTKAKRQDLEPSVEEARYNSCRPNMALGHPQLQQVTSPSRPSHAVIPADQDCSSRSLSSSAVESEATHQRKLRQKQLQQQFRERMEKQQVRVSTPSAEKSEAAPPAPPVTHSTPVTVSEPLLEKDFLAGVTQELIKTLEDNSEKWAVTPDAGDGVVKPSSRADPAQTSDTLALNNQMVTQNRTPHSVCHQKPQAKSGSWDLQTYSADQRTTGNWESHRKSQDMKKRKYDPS

[16] = target: T6, DNA repair and recombination protein RAD54-like (Homo sapiens, UniProt Q92698); assay: RAD54 Holliday junction migration blockers – biochemical, fluorescence, cherry-picked samples, dose series, confirmation (AID 651657); format: functional
T6 sequence (Q92698 whole entry): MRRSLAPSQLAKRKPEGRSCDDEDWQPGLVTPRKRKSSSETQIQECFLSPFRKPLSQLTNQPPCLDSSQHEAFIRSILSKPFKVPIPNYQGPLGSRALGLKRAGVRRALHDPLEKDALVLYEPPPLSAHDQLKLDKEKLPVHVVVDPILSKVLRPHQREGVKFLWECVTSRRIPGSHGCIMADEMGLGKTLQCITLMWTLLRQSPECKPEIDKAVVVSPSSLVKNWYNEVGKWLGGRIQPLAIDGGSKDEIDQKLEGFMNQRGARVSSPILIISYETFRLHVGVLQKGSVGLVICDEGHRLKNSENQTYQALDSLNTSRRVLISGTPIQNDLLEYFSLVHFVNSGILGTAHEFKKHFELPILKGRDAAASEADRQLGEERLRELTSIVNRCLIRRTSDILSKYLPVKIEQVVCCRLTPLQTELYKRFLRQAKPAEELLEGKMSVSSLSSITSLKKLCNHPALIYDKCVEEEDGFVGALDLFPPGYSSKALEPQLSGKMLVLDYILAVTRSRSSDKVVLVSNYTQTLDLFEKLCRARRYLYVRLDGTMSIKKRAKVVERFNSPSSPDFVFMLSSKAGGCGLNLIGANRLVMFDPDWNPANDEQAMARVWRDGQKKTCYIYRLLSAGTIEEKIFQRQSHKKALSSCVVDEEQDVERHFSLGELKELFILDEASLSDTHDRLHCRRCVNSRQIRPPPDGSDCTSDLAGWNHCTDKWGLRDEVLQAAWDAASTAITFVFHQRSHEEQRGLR

[17] = acridine orange displacement from DNA – biochemical, fluorescence polarization, cherry-pick, artefact control for RAD54 inhibitor project, dose response (AID 651673); format: functional
Beta-lactamase [18] = target: T7, Beta-lactamase (Pseudomonas aeruginosa, UniProt Q79MP6); assay: inhibition of IMP-1 beta-lactamase activity – biochemical, epi-absorbance, selectivity assay for VIM-2 inhibitor project, dose response (AID 1920)
T7 sequence (Q79MP6 whole entry): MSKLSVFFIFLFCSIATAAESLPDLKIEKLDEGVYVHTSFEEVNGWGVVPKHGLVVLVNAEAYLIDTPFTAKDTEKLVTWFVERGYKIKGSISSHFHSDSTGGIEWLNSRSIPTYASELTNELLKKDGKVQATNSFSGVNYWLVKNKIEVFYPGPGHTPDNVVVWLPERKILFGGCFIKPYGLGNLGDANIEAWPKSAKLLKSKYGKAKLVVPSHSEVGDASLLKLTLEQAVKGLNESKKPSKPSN

Beta-lactamase [19] = target: T7, Beta-lactamase; assay: […] counterscreen for selective VIM-2 inhibitors: dose response biochemical high throughput screening assay to identify inhibitors of IMP-1 metallo-beta-lactamase.
Beta-lactamase [20] = target: Beta-lactamase (Salmonella choleraesuis (strain SC-B67), UniProt Q5J463); assay: Epi-absorbance-based counterscreen for selective VIM-2 inhibitors: dose response biochemical high throughput screening assay to identify inhibitors of TEM-1 serine-beta-lactamase.
Chain of Beta-lactamase (Salmonella choleraesuis (strain SC-B67), UniProt Q5J463) (Q5J463 whole entry): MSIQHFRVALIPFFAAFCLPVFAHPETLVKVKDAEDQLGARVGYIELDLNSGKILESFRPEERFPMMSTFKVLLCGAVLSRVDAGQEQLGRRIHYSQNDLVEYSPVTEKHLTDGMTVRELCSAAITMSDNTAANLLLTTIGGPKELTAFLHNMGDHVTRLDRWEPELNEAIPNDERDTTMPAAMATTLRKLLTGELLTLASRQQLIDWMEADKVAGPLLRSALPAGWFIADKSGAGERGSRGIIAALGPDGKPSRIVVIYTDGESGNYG

[21] = viability loss in HeLa cells – cytotoxicity control for MgcRacGAP inhibitor project, dose response (AID 624300); format: functional
Cytochrome P450 2C9 = Cytochrome P450 2C9 (Homo sapiens, UniProt P11712)
Chain of Cytochrome P450 2C9 (P11712 whole entry): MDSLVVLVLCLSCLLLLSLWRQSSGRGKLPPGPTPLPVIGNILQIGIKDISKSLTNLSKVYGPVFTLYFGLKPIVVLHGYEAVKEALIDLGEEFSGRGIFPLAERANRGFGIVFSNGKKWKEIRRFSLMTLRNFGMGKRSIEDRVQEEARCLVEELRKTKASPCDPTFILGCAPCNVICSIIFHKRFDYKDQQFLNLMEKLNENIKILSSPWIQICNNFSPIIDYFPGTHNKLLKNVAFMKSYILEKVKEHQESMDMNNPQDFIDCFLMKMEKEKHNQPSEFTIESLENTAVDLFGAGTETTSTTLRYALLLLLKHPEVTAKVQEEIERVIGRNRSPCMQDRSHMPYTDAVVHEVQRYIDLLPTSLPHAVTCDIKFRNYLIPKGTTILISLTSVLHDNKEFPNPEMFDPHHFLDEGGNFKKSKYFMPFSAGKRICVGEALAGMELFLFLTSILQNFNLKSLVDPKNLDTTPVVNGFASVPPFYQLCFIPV

Protein S100-A4 = Protein S100-A4 (Homo sapiens, UniProt P26447); assay: human S100A4 peptide interaction inhibition curves – biochemical, fluorescence polarization, cherry-picked hits, dose response (AID 687001); format: functional
Chain of Protein S100-A4 (P26447 whole entry): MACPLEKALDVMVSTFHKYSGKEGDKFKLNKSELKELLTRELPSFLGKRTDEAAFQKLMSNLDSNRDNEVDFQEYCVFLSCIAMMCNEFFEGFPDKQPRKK

[22] = activation of miR-122 Renilla sensor silencing – cell-based, Huh7 psiCHECK-miR122, Renilla luciferase, cherry-picked, dose response (AID 651956); format: functional;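 further: huh7 hepatoma cells stably carrying a psiCHECK-2 miR-122 sensor plasmid; renilla luciferase signal reporting endogenous miR-122 activity after 48 h compound exposure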
[23] = mouse fibroblast viability loss – cell-based, cherry-pick samples, set 2, cytotoxicity control for T. cruzi growth inhibitor project, dose response (AID 651817); format: functional; details: NIH3T3
[24] = target: Palmitoyl-protein thioesterase ABHD10, mitochondrial (Mus musculus, UniProt Q6PE15); assay: Late stage assay provider results from the probe development effort to identify inhibitors of PME-1: fluorescence-based dose response biochemical gel-based competitive Activity-Based Protein Profiling (ABPP) inhibition of ABHD10 Set 1.; format: functional
Chain of Palmitoyl-protein thioesterase ABHD10, mitochondrial (Q6PE15 whole entry): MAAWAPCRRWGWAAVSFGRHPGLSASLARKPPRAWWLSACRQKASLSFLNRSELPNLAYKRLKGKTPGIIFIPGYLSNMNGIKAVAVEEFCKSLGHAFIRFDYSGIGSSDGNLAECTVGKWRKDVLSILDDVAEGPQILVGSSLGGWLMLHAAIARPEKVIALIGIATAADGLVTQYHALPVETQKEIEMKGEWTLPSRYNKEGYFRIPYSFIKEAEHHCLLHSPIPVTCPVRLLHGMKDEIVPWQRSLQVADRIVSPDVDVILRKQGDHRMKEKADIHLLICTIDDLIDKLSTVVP

[25] = antileishmanial activity on axenic amastigotes – plate reader, cherry pick, dose response (AID 651891); format: functional, cell-based; details: Leishmania donovani
[26] = Inhibition of Plasmodium falciparum NF54 Measured in Cell-Based System Using Plate Reader - 2138-11_Inhibitor_Dose_CherryPick_Activity.; format: functional
[27] = African trypanosome bloodstream form growth inhibition – STIB900 strain, plate reader, cherry pick, dose response (AID 651893); format: functional, cell-based, Trypanosoma brucei rhodesiense; details: Trypanosoma brucei
[28] = Inhibition of T. cruzi Tulahuen strain amastigotes in L-6 muscle cells Measured in Cell-Based and Microorganism Combination System Using Plate Reader - 2138-03_Inhibitor_Dose_CherryPick_Activity.; format: functional; details: Rattus norvegicus, L6
[29] = L6 myocyte viability loss – cell-based, plate reader, cherry-pick, cytotoxicity control, dose response (AID 651896); format: functional
[30] = target: T8, Sentrin-specific protease 1 (Homo sapiens, UniProt Q9P0U3); assay: SENP1 catalytic domain blockers, concentration series – biochemical, kinetic FRET, dose response (AID 651697); format: functional; details: read-out: IC50_Mean
T8 sequence (Q9P0U3 whole entry, the tested form may be a part): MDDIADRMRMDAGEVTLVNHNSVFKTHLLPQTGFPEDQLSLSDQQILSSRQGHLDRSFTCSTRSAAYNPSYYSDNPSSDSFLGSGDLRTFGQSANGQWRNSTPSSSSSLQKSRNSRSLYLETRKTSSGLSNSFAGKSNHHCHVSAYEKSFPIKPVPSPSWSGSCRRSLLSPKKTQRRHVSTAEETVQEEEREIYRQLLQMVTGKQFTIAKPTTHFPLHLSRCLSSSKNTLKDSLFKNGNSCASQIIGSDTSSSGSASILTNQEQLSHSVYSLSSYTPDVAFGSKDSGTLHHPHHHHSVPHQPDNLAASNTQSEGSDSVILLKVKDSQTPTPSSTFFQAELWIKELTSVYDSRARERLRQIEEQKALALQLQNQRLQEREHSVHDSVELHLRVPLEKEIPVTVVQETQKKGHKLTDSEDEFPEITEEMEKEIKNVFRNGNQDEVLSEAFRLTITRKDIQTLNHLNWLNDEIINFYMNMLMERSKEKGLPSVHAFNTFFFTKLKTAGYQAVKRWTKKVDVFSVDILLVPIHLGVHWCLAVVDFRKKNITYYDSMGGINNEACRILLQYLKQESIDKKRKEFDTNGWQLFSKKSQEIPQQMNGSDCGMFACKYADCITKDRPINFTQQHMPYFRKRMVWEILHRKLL

[31] = target: T8, Sentrin-specific protease 1; assay: Dose response confirmation of small molecule inhibitors of the catalytic domain of the SUMO protease, SENP1 in a FRET assay.; format: functional; details: read-out: IC50_Mean

CCC(CO)Oc1cc(NCc2cccc(C)c2)c2ncn(C(C)C)c2c1 (stereo unspecified)
IC50 [1]: 12.6 µM (active) | IC50 (Caspase-3): 46.6 µM (active) | IC50 [2]: 14 µM (active)

Cc1ccc(-c2cn3nc(-c4ccccc4)c(-c4ccccc4)nc3n2)cc1
EC50 [3]: 2.5 µM (active) | EC50 [4]: 1.5 µM (active) | EC50 (Lethal factor): 2 µM (active) | EC50 [5]: 9.1 µM (active)

CCOc1cc(/C=C2\CN(CC)C/C(=C\c3ccc(O)c(OCC)c3)C2=O)ccc1O
AC50 [6]: 9.14 µM (active) | EC50 (BJ [7]): 3.15 µM (inconclusive) | EC50 (BJ [8]): 4.09 µM (active) | IC50 [9]: 46.6 µM (active) | EC50 (BJ [10]): 583 nM (active) | AC50 [11]: 2.12 µM (active) | AC50 [12]: 12.5 µM (active) | AC50 [13]: 14.7 µM (active) | EC50 [14]: 3.65 µM (active)

COc1ccc(-c2nc(NCCCN(C)C)c3ccccc3n2)cc1
AC50 [15]: 2.39 µM (active) | AC50 [16]: 6 µM (active) | AC50 [17]: 46.8 µM (active)

CCCCn1c(S)nnc1-c1nn(C)cc1Cl
IC50 (Beta-lactamase [18]): > 59.6 µM (inactive) | IC50 (Beta-lactamase [19]): > 59.6 µM (inactive) | IC50 (Beta-lactamase [20]): > 59.6 µM (inactive)

CN(C)CCCN1c2ccc3ccccc3c2Sc2cccc(Cl)c21
IC50 [9]: 48.9 µM (active) | CC50 [21]: 42.8 µM (active) | AC50 (Cytochrome P450 2C9): 7.94 µM (inconclusive)

O=C1C(N2CCOCC2)=Cc2cccc3cccc1c23
AC50 (Protein S100-A4): 1.09 µM (active)

C[C@@H]1CN([C@H](C)CO)S(=O)(=O)c2ccc(/C=C/c3ccccc3)cc2O[C@@H]1CN(C)C(=O)c1cccnc1
AC50 [22]: 2.93 µM (active)

Cc1ccc(S(=O)(=O)N(C)C[C@@H]2Oc3c(NC(=O)c4nc5ccccc5s4)cccc3C(=O)N([C@H](C)CO)C[C@@H]2C)cc1
AC50 [23]: 24.8 µM (active)

CCCOC(=O)N1C(=O)[C@@](CC)(c2ccc(C)cc2)N1C(=O)OCCC
IC50 [24]: 12 nM (active)

C[C@@H]1CN([C@H](C)CO)C(=O)c2cccc(NC(=O)c3ccncc3)c2O[C@@H]1CN(C)Cc1ccc(Cl)c(Cl)c1
IC50 [25]: > 100 µM (inactive) | IC50 [26]: 5.59 µM (inactive) | IC50 [27]: 11.1 µM (inactive) | IC50 [28]: 5.59 µM (inactive) | IC50 [29]: > 100 µM (inactive)

COc1cc([C@H]2c3c(cc(OC)c(O)c3OC)C[C@@H](CO)[C@@H]2CO[C@@H]2O[C@H](CO)[C@@H](O)[C@H](O)[C@H]2O)cc(OC)c1O
IC50 [30]: 24.4 µM (inactive) | IC50 [31]: 14.2 µM (active)
